A word on the Cmax: it is the maximum level reached in the sampled fluid or tissue. A word on the half-life: it is how long it takes for the measured level to halve. Read a high half-life as slow decline. Usually Tmax stands for the time at which the peak concentration occurs. Usually Vd stands for a proportionality between amount in the body and measured concentration, not a real space. Read a low Vd as confinement near the circulation. The term clearance denotes the rate of elimination divided by the concentration. High values mean a high capacity for elimination, low ones a low capacity for elimination.

Like-named read-outs stand apart in the source and are kept apart here.

The test system of one data set is cancer patients. Further details: method as in Abigerges et al, 1996. As to conditions: phase I trial; ref Abigerges et al, 1996; cited from earlier work.
Data set [1] relates to sublines of the Jurkat human leukaemia cell line, which have reduced amounts of topoisomerase II. On the set-up: method as in Finlay et al, 1993. As to conditions: ref Finlay et al, 1993; cited from earlier work.
A further data set deals with Lewis lung carcinoma. On the set-up: method as in Atwell et al, 1987; Finlay and Baguley, 1989. As to conditions: Lewis lung carcinoma in mice; ref Atwell et al, 1987; Finlay and Baguley, 1989; cited from earlier work.
For another data set, the system named is mice. As to conditions: murine data, cited from earlier work.
In a further data set the test system is P388 leukaemia. The following applies: cited from earlier work.
The next data set in a line: clinical. As to conditions: human, in vivo; for Cmax: 800 mg.
The test system of data set [2] is patients with solid tumours.
Data set [3] concerns multi-drug resistant subline of the P388 leukaemia expressing the P-glycoprotein. Further details: method as in Baguley et al, 1990. As to conditions: ref Baguley et al, 1990; cited from earlier work.
The conditions of data set [4]: human, in vivo.
Details of data set [5]: method as in Evans et al, 1992; Paxton et al, 1992, 1993a, 1993b. As to conditions: preclinical pharmacology studies; ref Evans et al, 1992; Paxton et al, 1992, 1993a, 1993b; cited from earlier work.
The subject of a further data set is murine 16/C tumour. Further details: method as in Baguley et al, 1995. As to conditions: ref Baguley et al, 1995; cited from earlier work.
The test system of another data set is L1210 leukaemia. As to conditions: cited from earlier work.
In a further data set the test system is Colon 38. Further details: method as in Baguley et al, 1995. The following applies: Colon 38 tumour; ref Baguley et al, 1995; cited from earlier work.
On the set-up of data set [6]: method as in Evans et al, 1992; Paxton et al, 1992, 1993a, 1993b. The following applies: preclinical; ref Evans et al, 1992; Paxton et al, 1992, 1993a, 1993b; cited from earlier work.
In the next data set the test system is Colon 11 A. On the set-up: method as in Baguley et al, 1995. The following applies: Colon 11 A tumour; ref Baguley et al, 1995; cited from earlier work.
The next data set relates to metastatic solid tumour. The data set can be described thus: Anti-tumour activity in patients, WHO criteria. Type of data set: in vivo, human. As to conditions: 41 patients, 9-800 mg m-2.

In the case of `Cc1cnc(NCCCN(C)C)c2c1[nH]c1ccc3cc(O)ccc3c12` [intoplicine], the dose-limiting toxicity entry in the data set with cancer patients is “hepatotoxicity”.
For the compound `CN(C)CCNC(=O)c1cccc2cc3ccccc3nc12.Cl.Cl` [DACA, N-[2-(dimethylamino)ethyl] acridine-4-carboxamide dihydrochloride], in data set [1], the “sensitivity of Jurkat sublines with reduced topoisomerase II” value was “retain sensitivity”. Moreover, the activity in vivo entry is reported as “highly active” in the data set on Lewis lung carcinoma; “only moderate activity” in the data set with P388 leukaemia; “highly active” in the data set on murine 16/C tumour; “only moderate activity” in the data set with L1210 leukaemia; “highly active” in the data set with Colon 38; “highly active” with Colon 11 A. Further, the LD10 result is listed as “approximately 30 mg kg-1 per day” in the data set on mice (five consecutive daily i.v. doses) and 58 mg/kg in the data set with mice (single i.v. dose). Moreover, the Cmax is 3150 ng/mL in “clinical” (female, Cmax) and 2310 to 12100 ng/mL in the data set “clinical” (Cmax (range)). Moreover, the half-life in “clinical” (T1/2) was 2.22 h. Further, the Tmax in “clinical” (Tmax) stood at 2.91 h. Further, the distribution volume (Vd) in the data set “clinical” (Vss) worked out at 143 L. The compound further had a clearance in the data set “clinical” (plasma clearance) of 1400 mL/min. Besides, in [2] (3 h i.v. infusion on 3 successive days, repeated every 3 weeks), the “maximum tolerated dose (MTD)” value was determined as 800 mg m-2 d-1. Moreover, the “dose-limiting toxicity (DLT)” value in data set [2] (3 h i.v. infusion on 3 successive days, 800 mg m-2) is reported as “pain during the infusion”. The clinically significant myelosuppression in data set [2] (all dose levels) was “rare”. The “activity against multi-drug resistant P388 subline expressing P-glycoprotein” value in [3] is “maintains activity”. The compound also came in with a T1/2 in data set [4] of 2.08 h. Besides, the Vss in data set [4] came out at 145.21. Besides, the “highest AUC on day 3 of all patients” value in data set [4] came to 54.2. The compound further showed a plasma clearance in data set [4] of 81.11. Moreover, the “relationship between dose and AUC” value in data set [4] is on record as “linear relationship”. Also, the “tissue levels in brain, liver, kidney and heart relative to plasma” value in data set [5] was “substantially higher”. In addition, in [6], the “unbound fraction in mouse plasma” value was 15.8%. Also, in the data set with metastatic solid tumour, the “objective responses according to WHO criteria” value is on record as “no objective responses”.
As to `COc1cc([C@@H]2c3cc4c(cc3[C@@H](O[C@@H]3O[C@@H]5CO[C@@H](C)O[C@H]5[C@H](O)[C@H]3O)[C@H]3COC(=O)[C@H]23)OCO4)cc(OC)c1O` [etoposide], the “sensitivity of Jurkat sublines with reduced topoisomerase II” value in [1] is listed as “highly resistant”.
Regarding `COc1cccc2c1C(=O)c1c(O)c3c(c(O)c1C2=O)C[C@@](O)(C(=O)CO)C[C@@H]3O[C@H]1C[C@H](N)[C@H](O)[C@H](C)O1` [doxorubicin], in data set [1], the “sensitivity of Jurkat sublines with reduced topoisomerase II” value was “highly resistant”.

The record behind these values is article PMC2363132, “Phase I and pharmacokinetic study of DACA (XR5000): a novel inhibitor of topoisomerase I and II” (British Journal of Cancer, 1999).
